Assay results reported in patent US20060106042A1, “Substituted heterocyclpyrmidines” (priority 2002, published 2006).
Where two headings read alike, the source gives them in different places.

Legend:
[1] = logP determination by reversed-phase HPLC (EEC Directive 79/831 Annex V.A8); type: physicochemical; conditions: for logP a): acidic range: 0.1% aqueous phosphoric acid/acetonitrile gradient, C18, 43° C.
Excerpt: (a) Mobile phases for the determination of the acidic range: 0.1% aqueous phosphoric acid, acetonitrile; linear gradient from 10% acetonitrile to 90% acteonitrile—the corresponding measurement results in Table 1 are marked^a). […]

[2] = test system: larvae of the mustard beetle (Phaedon cochleariae); assay: Phaedon larvae test (cabbage leaves, dip); type: in vivo; conditions: 168 h, after 7 d, cabbage leaves dipped, read-out: Kill rate in % after 7 d
Experimental: (§1) • Solvent: 7 parts by weight of dimethylformamide • Emulsifier: 2 parts by weight of alkylaryl polyglycol ether
After the desired period of time, the kill in % is determined. 100% means that all beetle larvae have been killed; 0% means that none of the beetle larvae have been killed.

Meloidogyne incognita = assay: Meloidogyne test (gall formation on lettuce roots); type: in vivo; conditions: for pest or weed control at 20 ppm: Meloidogyne incognita, 336 h, after 14 d, nematicidal action by gall formation on lettuce, read-out: Kill rate in % after 14 d; for kill rate: 20 ppm, Meloidogyne test as described
Experimental: as §1
To produce a suitable preparation of active compound, 1 part by weight of active compound is mixed with the stated amounts of solvent and emulsifier, and the concentrate is diluted with water to the desired concentration.
Vessels are filled with sand, solution of active compound, Meloidogyne incognita egg/larvae suspension and lettuce seeds. The lettuce seeds germinate and the plants develop. On the roots, galls are formed.
After the desired period of time, the nematicidal action is determined in % using the formation of galls. 100% means that no galls were found; 0% means that the number of galls on the treated plants corresponds to that of the untreated control.

[3] = test system: greenhouse red spider mite (Tetranychus urticae); assay: Tetranychus test (OP-resistant/dip treatment); type: in vivo; conditions: 168 h, read-out: Kill rate in % after 7 d
Experimental: Tetranychus Test (OP-Resistant/Dip Treatment)
as §1
After the desired period of time, the effect in % is determined. 100% means that all spider mites have been killed; 0% means that none of the spider mites have been killed.

[4] = test system: caterpillars of the armyworm (Spodoptera frugiperda); assay: Spodoptera frugiperda test (cabbage leaves, dip); type: in vivo; conditions: 168 h, after 7 d, cabbage leaves dipped, read-out: Kill rate in % after 7 d
Experimental: Spodoptera frugiperda Test
as §1
After the desired period of time, the kill in % is determined. 100% means that all caterpillars have been killed; 0% means that none of the caterpillars have been killed.

[5] = reversed-phase HPLC column (C18); acidic range: 0.1% aqueous phosphoric acid/acetonitrile gradient, C18, 43° C.; read-out: logP a)
[6] = 100 ppm, after 7 d, OP-resistant, bean plants dipped

Row | Compound | chromatographic logP [1, 5] | pest or weed control at 20 ppm (Meloidogyne incognita) | kill rate (Meloidogyne incognita) | also measured
1 | FC(F)=CCCSc1nccc(-c2ccc(Cl)s2)n1 [Example 3] | 4.73 | 100% | – | pest or weed control at 500 ppm [2]: 100%
2 | [O-][S+](CCC=C(F)F)c1nccc(-c2ccccn2)n1 (centres unmarked) [Example 5] | 1.47 | – | – | pest or weed control at 100 ppm [3]: 100%
3 | FC(F)=CCCSc1nccc(-c2cccnc2)n1 [Example 9] | 1.96 | 100% | – | pest or weed control at 100 ppm [3, 6]: 100%
4 | FC(F)=CCCSc1nccc(-c2ccncc2)n1 [Example 10] | 1.72 | – | – | pest or weed control at 500 ppm [2]: 100%
5 | FC(F)=C(F)CCSc1nccc(-c2nccs2)n1 [Example 12] | 1.56 | 100% | – | –
6 | FC(F)=C(F)CCSc1nccc(-c2cnccn2)n1 [Example 16] | 2.92 | 100% | – | –
7 | FC(F)=CCCSc1nccc(-c2cccc(Br)n2)n1 [Example 17] | 4.51 | – | – | pest or weed control at 100 ppm [3, 6]: 100%
8 | CCOc1cccc(-c2ccnc(SCCC=C(F)F)n2)n1 [Example 20] | 4.91 | – | – | pest or weed control at 500 ppm [4]: 100%
9 | FC(F)=C(F)CCSc1nccc(-c2ccc[nH]2)n1 [Example 21] | – | 100% | – | –
10 | FC(F)=C(F)CCSc1nccc(-n2cccn2)n1 [Example 22] | 3.27 | 100% | – | –
11 | FC(F)=CCCSc1nccc(-n2cc(Cl)cn2)n1 [Example 24] | 4.13 | – | – | pest or weed control at 500 ppm [2]: 100%
12 | FC(F)=CCCSc1nccc(-c2cccs2)n1 [Example 27] | 3.83 | – | – | pest or weed control at 100 ppm [3, 6]: 100%
13 | FC(F)=C(F)CCSc1nccc(-c2cccs2)n1 [Example 28] | 3.84 | 100% | – | –
14 | FC(F)=CCCSc1nccc(-c2ccc3ccccc3n2)n1 [Example 31] | 4.81 | – | – | pest or weed control at 500 ppm [4]: 100%
15 | FC(F)=CCCSc1nccc(-c2cc(-c3ccccc3)ccn2)n1 [Example 32] | 4.77 | – | – | pest or weed control at 100 ppm [3, 6]: 100%
16 | CC(C)(C)c1ccnc(-c2ccnc(SCCC=C(F)F)n2)c1 [Example 33] | 4.8 | – | – | pest or weed control at 100 ppm [3, 6]: 100%
17 | FC(F)=C(F)CCSc1nccc(-c2ccc3ccccc3n2)n1 [Example 34] | 4.81 | 100% | – | –
18 | Cc1cc(=O)[nH]n1-c1ccnc(SCCC=C(F)F)n1 [Example 39] | 2.55 | 100% | – | –
19 | FC(F)=CCCSc1nccc(-n2nnc3ccccc32)n1 [Example 40] | 3.97 | – | – | pest or weed control at 500 ppm [4]: 100%
20 | FC(F)=C(F)CCSc1nccc(-n2cccc2)n1 [Example 41] | – | 100% | – | –
21 | FC(F)=CCCSc1nccc(-n2nc3ccccc3n2)n1 [Example 42] | 3.98 | – | – | pest or weed control at 100 ppm [3, 6]: 99%
22 | FC(F)=CCCSc1nccc(-c2ncccc2Cl)n1 [Example 43] | 3.32 | – | – | pest or weed control at 100 ppm [3, 6]: 99%
23 | FC(F)=CCCSc1nccc(-c2nc3ccc(Cl)cc3s2)n1 [Example 45] | 5.57 | 100% | – | –
24 | FC(F)=CCCSc1nccc(-c2cscn2)n1 [Example 48] | 3.14 | – | – | pest or weed control at 500 ppm [4]: 100%
25 | COc1ccc(-c2ccnc(SCCC(F)=C(F)F)n2)nc1 [Example 49] | 2.17 | 100% | – | –
26 | COc1ccc(-c2ccnc(SCCC=C(F)F)n2)nc1 [Example 50] | 2.12 | – | – | pest or weed control at 500 ppm [4]: 100%
27 | FC(F)=CCCSc1nccc(-c2ccc(Br)s2)n1 [Example 51] | 4.77 | – | – | pest or weed control at 500 ppm [4]: 100%

Row | Compound | chromatographic logP [1, 5] | pest or weed control at 20 ppm (Meloidogyne incognita) | kill rate (Meloidogyne incognita) | also measured
28 | Cc1ccc(-c2ccnc(SCCC=C(F)F)n2)s1 [Example 52] | 4.3 | – | – | pest or weed control at 500 ppm [4]: 100%
29 | FC(F)=CCCSc1nccc(-c2cc3ccccc3s2)n1 [Example 53] | 4.87 | – | – | pest or weed control at 500 ppm [4]: 100%
30 | FC(F)=C(F)CCSc1nccc(-c2cc3ccccc3s2)n1 [Example 57] | 4.85 | 100% | – | –
31 | FC(F)=CCCSc1nccc(-c2ccsc2)n1 [Example 59] | 3.8 | – | – | pest or weed control at 500 ppm [2]: 100%
32 | FC(F)=C(F)CCSc1nccc(-c2ccsc2)n1 [Example 60] | 3.82 | 100% | – | –
33 | Cc1cc(-c2ccnc(SCCC(F)=C(F)F)n2)c(C)s1 [Example 62] | 4.79 | 100% | – | –
34 | FC(F)=CCCSc1nccc(-c2cc(Cl)sc2Cl)n1 [Example 63] | 5.65 | – | – | pest or weed control at 500 ppm [4]: 100%; pest or weed control at 100 ppm [3]: 100%
35 | FC(F)=C(F)CCSc1nccc(-c2cc(Cl)sc2Cl)n1 [Example 64] | 5.55 | 100% | – | –
36 | CC(C)(C)n1nnc(-c2cnc(SCCC(F)=C(F)F)nc2)n1 [Example 67] | 4.22 | 100% | – | pest or weed control at 500 ppm [2]: 100%
37 | Cc1nn(-c2ccnc(SCCC=C(F)F)n2)cc1Br [Example 82] | – | – | 100% | logP a) [1]: logP '2 4.76^a)
38 | CC(C)Oc1cnn(-c2ccnc(SCCC=C(F)F)n2)c1 [Example 85] | – | – | 100% | logP a) [1]: logP = 4.26^a)
39 | Cc1cc(C)n(-c2ccnc(SCCC=C(F)F)n2)n1 [Example 86] | – | – | 100% | logP a) [1]: logP = 3.95^a)
40 | FC(F)=CCCSc1nccc(-n2ncc3ccccc32)n1 [Example 87] | – | – | 100% | logP a) [1]: logP = 4.26^a)
41 | FC(F)=CCCSc1nccc(-n2cnc(Cl)c2Cl)n1 [Example 88] | – | – | 100% | logP a) [1]: logP = 3.57^a)
42 | FC(F)=CCCSc1nccc(-n2cnc(-c3ccccc3)c2)n1 [Example 92] | – | – | 100% | logP a) [1]: logP = 3.45^a)
43 | Nc1nn(-c2ccnc(SCCC=C(F)F)n2)cc1Br [Example 93] | – | – | 100% | logP a) [1]: logP = 3.15^a)
44 | Nc1ccn(-c2ccnc(SCCC=C(F)F)n2)n1 [Example 97] | – | – | 100% | logP a) [1]: logP = 2.31^a)
45 | N#Cc1cccn1-c1ccnc(SCCC=C(F)F)n1 [Example 104] | – | – | 100% | logP a) [1]: logP = 3.23^a)
46 | Cc1nccn1-c1ccnc(SCCC=C(F)F)n1 [Example 107] | – | – | 100% | logP a) [1]: logP = 1.30^a)
47 | FC(F)=CCCSc1nccc(-n2cnc(Cl)n2)n1 [Example 109] | – | – | 100% | logP a) [1]: logP = 3.31^a)
48 | O=[N+]([O-])c1ncn(-c2ccnc(SCCC=C(F)F)n2)n1 [Example 110] | – | – | 100% | logP a) [1]: logP = 2.95^a)
49 | FC(F)=CCCSc1nccc(-n2cncn2)n1 [Example 112] | – | – | 100% | logP a) [1]: logP = 2.44^a)
50 | O=C1CCC(=O)N1c1ccnc(SCCC=C(F)F)n1 [Example 119] | – | – | 100% | –
51 | FC(F)=CCCSc1nccc(-n2cccc2)n1 [Example 120] | – | – | 100% | –
52 | FC(F)=CCCSc1nccc(-n2nccn2)n1 [Example 125] | – | – | 100% | –
53 | FC(F)=CCCSc1nccc(Cl)n1 [Example (II-1), 4-chloro-2-[(4,4-difluoro-3-butenyl)-sulfanyl]-pyrimidine] | – | – | – | chromatographic logP ([1]; reversed-phase HPLC column (C18), pH 2.3, read-out: logP (pH 2.3)): 3.3
